We go through five compounds from publication PMC6934700, “Structure-Guided Design of a Fluorescent Probe for the Visualization of FtsZ in Clinically Important Gram-Positive and Gram-Negative Bacterial Pathogens” (Scientific Reports, 2019).

In brackets after ≈: the same amount, converted by molar mass.

Assay [1] concerns the target T1, FtsZ in S. aureus NRS705 cells (Staphylococcus aureus, UniProt P0A031).
T1 construct: endogenous in cells; host or cells: S. aureus NRS705 (USA100 MRSA)
It is filed as cell-based. The conditions noted are these: 1 µg/mL for 5 minutes. How it is done:
(§1) All differential interference contrast (DIC) and fluorescence microscopy experiments were conducted using an Olympus BX50 microscope equipped with an X-cite Exacte 200 W mercury lamp, a 100× Olympus UPLSAPO oil immersion objective (1.40 aperture), as well as both Chroma ET-EGFP (FITC/Cy2) and ET mCherry, Texas Red filters. Images were captured using a QImaging Retiga R3 charge-coupled device (CCD) camera and the Ocular-Version 2.0 software package (QImaging).
For visualizing FtsZ in Gram-positive bacteria using BOFP, the bacterial cells were grown to log-phase in media suitable for each individual pathogen. Specifically, S. aureus NRS705 (MRSA) was grown in tryptic soy broth (TSB), E. faecalis ATCC 29212 and E. faecium ATCC 19434 were grown in lactobacilli MRS broth, S. agalactiae ATCC 12386 and S. pneumoniae ATCC 49619 were grown in TH broth, and S. pyogenes ATCC 19615 was grown in CAMH broth supplemented with 3% (v/v) LHB. For each Gram-positive bacterial strain, a total of 1 mL of cell culture was centrifuged at 15,000 × g for 1 minute and washed 2–3 times with 1 mL of PBS. After the final wash, the pelleted cells were resuspended in 500 µL of PBS containing 1 µg/mL of BOFP and incubated in the dark for 5 minutes at room temperature. The cells were then centrifuged at 15,000 × g for 1 minute, washed twice with 1 mL of PBS, and subsequently resuspended in 200 µL of PBS. […]

In assay [2] the test system is FtsZ in K. pneumoniae ATCC 13883 cells. The assay is described as follows: FtsZ visualization by fluorescence microscopy in live cells. It is filed as cell-based, Klebsiella pneumoniae. The conditions noted are these: 1 µg/mL for 5 minutes, co-treated with 3.5 mg/mL pentamidine isethionate. As to the method:
as §1
For visualizing FtsZ in Gram-negative bacteria using BOFP, E. coli ATCC 25922, K. pneumoniae ATCC 13883, P. aeruginosa ATCC 27853, and A. baumannii ATCC 19606 were grown to log-phase in CAMH broth. For each Gram-negative bacterial strain, a total of 1 mL of cell culture was centrifuged at 15,000 × g for 1 minute and washed twice with 1 mL of Tris-buffered saline (TBS) composed of 50 mM Tris-HCl (pH 7.6) and 150 mM NaCl. After the final wash, the pelleted cells were resuspended in 500 µL of TBS containing 1 µg/mL of BOFP and pentamidine isethionate (at 0.875 mg/mL for E. coli and 3.5 mg/mL for the other three strains). The resuspended cells were then incubated in the dark for 5 minutes at room temperature, centrifuged at 15,000 × g for 1 minute, washed twice with 1 mL of TBS, and subsequently resuspended in 200 µL of TBS. This final cell suspension was then prepared for microscopy as described for the Gram-positive bacterial strains. Comparative control experiments with 1 µg/mL BODIPY FL-COOH were conducted in K. pneumoniae ATCC 13883 cells as described above for BOFP.

The target of another assay is T2, P. aeruginosa (PaFtsZ) (Pseudomonas aeruginosa, UniProt P47204).
T2 construct: 6xHis (C); made in house; host or cells: E. coli BLR (DE3), pET-22b(+)
T2 sequence (P47204 1-394): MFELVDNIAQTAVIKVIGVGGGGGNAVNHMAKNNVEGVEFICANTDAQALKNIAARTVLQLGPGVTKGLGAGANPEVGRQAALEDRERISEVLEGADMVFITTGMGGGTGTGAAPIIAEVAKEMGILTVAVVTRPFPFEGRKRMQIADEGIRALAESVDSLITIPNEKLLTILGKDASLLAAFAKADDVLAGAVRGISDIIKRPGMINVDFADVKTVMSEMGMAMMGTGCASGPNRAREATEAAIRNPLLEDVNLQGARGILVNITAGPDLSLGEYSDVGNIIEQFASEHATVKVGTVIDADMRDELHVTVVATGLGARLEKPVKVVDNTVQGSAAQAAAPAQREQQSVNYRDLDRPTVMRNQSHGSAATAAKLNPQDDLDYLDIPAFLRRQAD
The assay is described as follows: Fluorescence anisotropy binding of BOFP to PaFtsZ. The conditions noted are these: 0.1 µM compound, 2 µM PaFtsZ, 37 °C. How it is done:
(§2) Fluorescence anisotropy experiments were performed using an AVIV model ATF105 spectrofluorometer at 15, 25, or 37 °C. In these experiments, bandwidths were set to 4 nm in both the excitation and emission directions, with the excitation and emission wavelengths being set at 488 nm and 510 nm, respectively. BOFP (0.1 µM) was titrated with increasing concentrations (ranging from 0 to 12 µM) of FtsZ in 120 µL of buffer containing 50 mM Tris-HCl (pH 7.6) and 50 mM KCl. After each protein addition, the samples were equilibrated for 3 minutes, whereupon the fluorescence anisotropy was measured.
(§3) In this equation, r0 is the anisotropy of the protein-free compound, r∞ is the anisotropy of the compound in the presence of an infinite concentration of FtsZ, [C]tot is the total concentration of the compound, and [P]tot is the total concentration of protein with each addition. These analyses yielded the equilibrium dissociation constant (Kd) for each binding reaction.
(§4) The binding free energy (ΔG) at temperature T was derived from the corresponding Kd value determined at T using the following relationship:2 ΔG=−RTln(1/Kd)
(§5) The binding enthalpy (ΔH) and entropy (ΔS) were derived from linear fits of the ln(1/Kd) vs. 1/T plots shown in Figs. 3f and 5e using the following relationship:3 ln(1/Kd)=−ΔH/R(1/T)+ΔS/R
(§6) In comparative control experiments, the anisotropy of 0.1 µM BODIPY FL-COOH or BOFP alone or in the presence of SaFtsZ (10 µM), SpyFtsZ (10 µM), KpFtsZ (2 µM), or PaFtsZ (2 µM) was measured at 37 °C in the same buffer described above.

The next assay concerns the target K. pneumoniae (KpFtsZ) (Klebsiella pneumoniae, UniProt A0A0H3GRR0). As to the kind of experiment: Fluorescence anisotropy binding of BOFP to KpFtsZ. The conditions noted are these: 0.1 µM compound, 2 µM KpFtsZ, 37 °C. How it is done:
as §2, §3, §4, §5, §6

The next assay has as its target S. pyogenes (SpyFtsZ) (Streptococcus pyogenes, UniProt Q99YV7). The assay is described as follows: Fluorescence anisotropy binding of BOFP to SpyFtsZ. The conditions noted are these: 0.1 µM compound, 10 µM SpyFtsZ, 37 °C. How it is done:
as §2, §3, §4, §5, §6

A further assay concerns the target T3, S. aureus (SaFtsZ) (Staphylococcus aureus, UniProt P0A031).
T3 construct: 6xHis (C); made in house; host or cells: E. coli BLR (DE3), pET-22b(+)
T3 sequence (P0A031 1-390): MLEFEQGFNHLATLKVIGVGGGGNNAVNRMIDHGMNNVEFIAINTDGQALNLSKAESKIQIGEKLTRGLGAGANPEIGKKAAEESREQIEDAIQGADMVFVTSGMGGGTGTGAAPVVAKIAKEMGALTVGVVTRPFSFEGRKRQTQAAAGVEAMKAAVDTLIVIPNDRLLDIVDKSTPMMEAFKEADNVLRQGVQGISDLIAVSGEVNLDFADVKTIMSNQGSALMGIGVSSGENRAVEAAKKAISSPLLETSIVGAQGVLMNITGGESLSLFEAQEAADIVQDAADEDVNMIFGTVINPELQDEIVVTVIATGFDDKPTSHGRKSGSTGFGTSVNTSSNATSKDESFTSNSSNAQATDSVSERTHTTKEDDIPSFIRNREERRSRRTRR
The assay is described as follows: biochemical. The format is binding. The conditions noted are these: 0.1 µM compound, 10 µM SaFtsZ, 37 °C. How it is done: as §2, §3, §4, §5
The impact of guanosine nucleotide and magnesium on the binding of BOFP to SaFtsZ was assessed at 37 °C in the same buffer described above. In these studies, the anisotropy of 0.1 µM BOFP alone or in the presence of 10 µM SaFtsZ was measured, with the latter also being measured in the presence of 0.1 mM GMPCPP (a non-hydrolyzable GTP analog), 10 mM MgCl2, or both.
as §6

A further assay deals with S. aureus NRS705 (MRSA). As to the kind of experiment: MIC assay by broth microdilution. The format is cell-based, Staphylococcus aureus. Particulars: for 4× MIC: S. aureus NRS705, concentration equal to four times the MIC; for MIC: Staphylococcus aureus, MRSA NRS705, TH broth, ≥90% growth inhibition after 18-24 hours. As to the method:
MIC assays of 1, 3, and BOFP were conducted by standard broth microdilution in TH media. Briefly, log-phase S. aureus NRS705 (MRSA) cells were added to 96-well microtiter plates (at 5 × 10^5 CFU/mL) containing 2-fold serial dilutions of each test compound in 0.1 mL of TH broth, with each compound concentration being present in duplicate. The MIC is defined as the lowest compound concentration at which growth is ≥90% inhibited after 18-24 hours of aerobic growth.

In another assay the test system is MRSA LAC FtsZ-mCherry. The assay is described as follows: MIC (stated as 4× MIC used for treatment). It is filed as cell-based, Staphylococcus aureus. The conditions noted are these: concentration equal to four times the MIC.
Assay [3] has as its system K. pneumoniae ATCC 10031. As to the kind of experiment: Impact of FtsZ inhibitor treatment on cell morphology and FtsZ localization (DIC/fluorescence microscopy, BOFP labeling). The format is cell-based, Klebsiella pneumoniae. Particulars: treated at 4x MIC for 3 hours. How it is done:
as §1
(§7) To visualize the impact of treatment with the FtsZ inhibitor 1 using BOFP, S. aureus NRS705 (MRSA), E. coli N43, and K. pneumoniae ATCC 10031 were grown to log-phase in CAMH broth and diluted to an OD600 of 0.1. […] Following this treatment, 1–5 mL of each culture was centrifuged at 15,000 × g for 1 minute and washed twice with 1 mL of PBS (for S. aureus) or TBS (for E. coli and K. pneumoniae). The resulting S. aureus cell pellets were further processed and labeled with BOFP as described above for the Gram-positive bacterial strains and the resulting E. coli and K. pneumoniae cell pellets were further processed and labeled with BOFP as described above for the Gram-negative bacterial strains. The impact of treating S. aureus NRS705 cells with the FtsZ inhibitors PC190723 and TXA707 at 4× MIC (2 µg/mL for PC190723 and 4 µg/mL for TXA707) was also examined using BOFP as described above.

Assay [4] relates to E. coli N43. The assay is described as above. It is filed as cell-based, Escherichia coli. The conditions noted are these: treated at 4x MIC for 3 hours. As to the method:
as §1, §7

For assay [5], the system named is K. pneumoniae ATCC 10031. The assay is described as follows: MIC (stated as 4× MIC used for treatment). It is filed as cell-based, Klebsiella pneumoniae. Particulars: concentration equal to four times the MIC.
Assay [6] relates to E. coli N43. As to the kind of experiment: MIC (stated as 4× MIC used for treatment). The format is cell-based, Escherichia coli. Particulars: concentration equal to four times the MIC.
The next assay relates to S. aureus NRS705. As to the kind of experiment: Impact of FtsZ inhibitor treatment on cell morphology and FtsZ localization (DIC/fluorescence microscopy, BOFP labeling). It is filed as cell-based, Staphylococcus aureus. The conditions noted are these: treated at 4x MIC for 3 hours. As to the method:
as §1, §7

K. pneumoniae (KpFtsZ), sequence (A0A0H3GRR0 entry or part of it): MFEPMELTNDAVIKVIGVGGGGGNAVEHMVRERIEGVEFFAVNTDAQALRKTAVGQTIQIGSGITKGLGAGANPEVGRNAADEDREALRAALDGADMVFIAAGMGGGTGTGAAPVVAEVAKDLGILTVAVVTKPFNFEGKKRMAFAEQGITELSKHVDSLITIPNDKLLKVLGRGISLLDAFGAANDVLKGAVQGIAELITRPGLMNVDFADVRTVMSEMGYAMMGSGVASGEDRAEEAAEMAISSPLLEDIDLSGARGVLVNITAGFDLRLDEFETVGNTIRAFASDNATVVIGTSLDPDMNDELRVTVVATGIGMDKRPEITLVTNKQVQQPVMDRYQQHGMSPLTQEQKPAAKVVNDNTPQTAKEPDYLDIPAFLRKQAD
S. pyogenes (SpyFtsZ), sequence (Q99YV7 entry or part of it): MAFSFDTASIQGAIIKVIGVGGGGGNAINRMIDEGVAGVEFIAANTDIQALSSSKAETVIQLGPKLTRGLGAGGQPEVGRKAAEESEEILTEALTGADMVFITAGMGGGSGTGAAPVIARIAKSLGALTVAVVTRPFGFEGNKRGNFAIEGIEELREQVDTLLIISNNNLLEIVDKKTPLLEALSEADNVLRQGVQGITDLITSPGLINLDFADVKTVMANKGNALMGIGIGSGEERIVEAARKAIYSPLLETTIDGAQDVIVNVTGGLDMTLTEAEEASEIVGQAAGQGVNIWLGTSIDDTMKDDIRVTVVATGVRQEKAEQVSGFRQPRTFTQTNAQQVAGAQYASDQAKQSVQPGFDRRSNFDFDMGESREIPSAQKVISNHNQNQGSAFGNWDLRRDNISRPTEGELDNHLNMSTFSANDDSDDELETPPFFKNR

For the compound `CC1=CC(C)=[N+]2C1=Cc1ccc(CCC(=O)O)n1[B-]2(F)F` [BODIPY FL-COOH, 3-(5,5-difluoro-7,9-dimethyl-5H-5λ^4,6λ^4-dipyrrolo[1,2-c:2′,1′-f][1,3,2]diazaborinin-3-yl)propanoic acid, reference compound], the “Fluorescence staining / FtsZ labeling in live cells” value in assay [1] was “no fluorescence staining of the S. aureus cells was detectable”; in assay [2], “no such FtsZ staining was detectable”. Besides, the “Binding interaction (fluorescence anisotropy change on adding FtsZ)” value at P. aeruginosa (PaFtsZ) is “no binding interactions with BODIPY FL-COOH were detectable”; at K. pneumoniae (KpFtsZ) it was “no binding interactions with BODIPY FL-COOH were detectable”; at S. pyogenes (SpyFtsZ) it was “no such binding interactions were observable”; at S. aureus (SaFtsZ), “No such anisotropy change was observed”.
As for `NC(=O)c1c(F)ccc(OCc2nc3cc(Cl)cnc3s2)c1F` [PC190723], the “4× MIC” value with S. aureus NRS705 (MRSA) stood at 2 µg/mL.
On the same count and under the same terms, the same measure for `NC(=O)c1c(F)ccc(OCc2nc3cc(C(F)(F)F)cnc3s2)c1F` [TXA707]: 4 µg/mL.
For the compound `NC(=O)c1c(F)ccc(OCc2nc(-c3ccc(C(F)(F)F)cc3)c(Br)o2)c1F` [compound 1], the “4× MIC” value in the assay on MRSA LAC FtsZ-mCherry was 0.25 µg/mL; in the assay with S. aureus NRS705 (MRSA), 1 µg/mL; in the assay on K. pneumoniae ATCC 10031 [5] it was 4 µg/mL; with E. coli N43 [6] it was 4 µg/mL. Further, the figures for the “Change in cell morphology” value with K. pneumoniae ATCC 10031 [3], in the assay with E. coli N43 [4] and in the assay on S. aureus NRS705 were “filamentation”, “filamentation” and “cell enlargement”, respectively. The “FtsZ localization visualized with BOFP” value with K. pneumoniae ATCC 10031 [3] (then 1 µg/mL BOFP with 3.5 mg/mL pentamidine isethionate for 5 minutes) is “clear mislocalization of FtsZ and an absence of Z-rings”; with E. coli N43 [4] (then 1 µg/mL BOFP with 0.875 mg/mL pentamidine isethionate for 5 minutes), “clear mislocalization of FtsZ and an absence of Z-rings”; in the assay on S. aureus NRS705 (then 1 µg/mL BOFP for 5 minutes), “clear mislocalization of FtsZ and an absence of Z-rings”. Further, the MIC against S. aureus NRS705 (MRSA) stood at 0.25 µg/mL (≈ 0.524 µM).
With `NC(=O)c1c(F)ccc(OC(CO)c2nc(-c3ccc(C(F)(F)F)cc3)c(Br)o2)c1F` (centres unmarked) [compound 3], the MIC in the assay on S. aureus NRS705 (MRSA) stood at 0.5 µg/mL (≈ 0.986 µM).
